# Source: PMC9271048, “Probing strigolactone perception mechanisms with rationally designed small-molecule agonists stimulating germination of root parasitic weeds” (Nature Communications, 2022)
# Where two headings read alike, the source gives them in different places.
# Key:
# [1] = test system: ShHTLs (10 HTL proteins in S. hermonthica); experiment: YLG-based competition assay on HTL proteins of S. hermonthica; type: biochemical, Striga hermonthica; details: Supplementary Fig. 27
# Outline: (§1)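 Competition with fluorogenic substrate YLG ([…]) for hydrolysis by each HTL or KAI2 protein; fluorescence (Ex 480/Em 520 nm) recorded every 1 min for 30 min. Linear 8-min increase, background hydrolysis subtracted, used; IC50 from fitted relative inhibition versus concentration.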
# [2] = target: T1, ShHTL7 (Striga hermonthica, UniProt A0A0M3PNA2); experiment: Competitive inhibition of ShHTL7 with Yoshimulactone Green (YLG) as substrate; type: biochemical
# Outline: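 YLG hydrolysis by ShHTL7 followed by fluorescence (ex 480/em 520 nm) every 1 min for 30 min; compounds and YLG from fresh DMSO stocks. After subtracting no-enzyme background, the linear 8-min increase was used; IC50 fitted from relative inhibition versus compound concentration.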
# [3] = target: T1, ShHTL7; experiment: ShHTL7-hydrolysis reaction analysis (HPLC); type: biochemical; details: 10 μM compound, 30 °C, 30 min; for relative percentage of hydrolysis by ShHTL7, source data average: Supplementary Figs. 11, 20a, 24a
# Outline: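 Compounds at 10 μM were incubated with 10 μg recombinant ShHTL7 or its mutants in PBS (pH 7.3) at 30 °C for 30 min, then quenched with methanol. The remaining compound was quantified by HPLC, and hydrolysis was expressed relative to a protein-free buffer control (n = 3).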
# [4] = test system: PaKAI2s (5 KAI2 protein homologs in P. aegyptiaca); experiment: YLG-based competition assay on KAI2 protein homologs of P. aegyptiaca; type: biochemical, Phelipanche aegyptiaca; details: Supplementary Fig. 27
# Outline: as §1
# [5] = ShHTL2, YLG competition, read-out: IC50, replicate 1
# [6] = ShHTL2, YLG competition, read-out: IC50, replicate 2
# [7] = ShHTL2, YLG competition, read-out: IC50, replicate 3
# [8] = ShHTL2, average of 3 replicates, read-out: IC50, average
# [9] = ShHTL3, YLG competition, read-out: IC50, replicate 1
# [10] = ShHTL3, YLG competition, read-out: IC50, replicate 2
# [11] = ShHTL3, YLG competition, read-out: IC50, replicate 3
# [12] = ShHTL3, average of 3 replicates, read-out: IC50, average
# [13] = ShHTL4, YLG competition, read-out: IC50, replicate 1
# [14] = ShHTL4, YLG competition, read-out: IC50, replicate 2
# [15] = ShHTL4, YLG competition, read-out: IC50, replicate 3
# [16] = ShHTL4, average of 3 replicates, read-out: IC50, average
# [17] = ShHTL5, YLG competition, read-out: IC50, replicate 1
# [18] = ShHTL5, YLG competition, read-out: IC50, replicate 2
# [19] = ShHTL5, YLG competition, read-out: IC50, replicate 3
# [20] = ShHTL5, average of 3 replicates, read-out: IC50, average
# [21] = ShHTL6, YLG competition, read-out: IC50, replicate 1
# [22] = ShHTL6, YLG competition, read-out: IC50, replicate 2
# [23] = ShHTL6, YLG competition, read-out: IC50, replicate 3
# [24] = ShHTL6, average of 3 replicates, read-out: IC50, average
# [25] = ShHTL8, YLG competition, read-out: IC50, replicate 1
# [26] = ShHTL8, YLG competition, read-out: IC50, replicate 2
# [27] = ShHTL8, YLG competition, read-out: IC50, replicate 3
# [28] = ShHTL8, average of 3 replicates, read-out: IC50, average
# [29] = ShHTL9, YLG competition, read-out: IC50, replicate 1
# [30] = ShHTL9, YLG competition, read-out: IC50, replicate 2
# [31] = ShHTL9, YLG competition, read-out: IC50, replicate 3
# [32] = ShHTL9, average of 3 replicates, read-out: IC50, average
# [33] = ShHTL10, YLG competition, read-out: IC50, replicate 1
# [34] = ShHTL10, YLG competition, read-out: IC50, replicate 2
# [35] = ShHTL10, YLG competition, read-out: IC50, replicate 3
# [36] = ShHTL10, average of 3 replicates, read-out: IC50, average
# [37] = ShHTL11, YLG competition, read-out: IC50, replicate 1
# [38] = ShHTL11, YLG competition, read-out: IC50, replicate 2
# [39] = ShHTL11, YLG competition, read-out: IC50, replicate 3
# [40] = ShHTL11, average of 3 replicates, read-out: IC50, average
# [41] = ShHTL7, YLG competition, Supplementary Fig. 27, read-out: IC50, replicate 1
# [42] = ShHTL7, YLG competition, Supplementary Fig. 27, read-out: IC50, replicate 2
# [43] = ShHTL7, YLG competition, Supplementary Fig. 27, read-out: IC50, replicate 3
# [44] = ShHTL7, average of 3 replicates, Supplementary Fig. 27, read-out: IC50, average
# [45] = YLG as substrate, text and Fig. 2, read-out: IC50, competitive ShHTL7 inhibition (YLG assay)
# [46] = wild-type ShHTL7, average of 3, source data of Fig. 2a,b, Supplementary Figs. 8a, 9a, 20b, read-out: IC50, competitive ShHTL7 inhibition (YLG), source data average
# [47] = KAI2C, YLG competition, read-out: IC50, replicate 1
# [48] = KAI2C, YLG competition, read-out: IC50, replicate 2
# [49] = KAI2C, YLG competition, read-out: IC50, replicate 3
# [50] = KAI2C, average of 3 replicates, read-out: IC50, average
# [51] = KAI2d1, YLG competition, read-out: IC50, replicate 1
# [52] = KAI2d1, YLG competition, read-out: IC50, replicate 2
# [53] = KAI2d1, YLG competition, read-out: IC50, replicate 3
# [54] = KAI2d1, average of 3 replicates, read-out: IC50, average
# [55] = KAI2d2, YLG competition, read-out: IC50, replicate 1
# [56] = KAI2d2, YLG competition, read-out: IC50, replicate 2
# [57] = KAI2d2, YLG competition, read-out: IC50, replicate 3
# [58] = KAI2d2, average of 3 replicates, read-out: IC50, average
# [59] = KAI2d3, YLG competition, read-out: IC50, replicate 1
# [60] = KAI2d3, YLG competition, read-out: IC50, replicate 2
# [61] = KAI2d3, YLG competition, read-out: IC50, replicate 3
# [62] = KAI2d3, average of 3 replicates, read-out: IC50, average
# [63] = KAI2d4, YLG competition, read-out: IC50, replicate 1
# [64] = KAI2d4, YLG competition, read-out: IC50, replicate 2
# [65] = KAI2d4, YLG competition, read-out: IC50, replicate 3
# [66] = KAI2d4, average of 3 replicates, read-out: IC50, average
# T1 sequence (A0A0M3PNA2 entry or part of it): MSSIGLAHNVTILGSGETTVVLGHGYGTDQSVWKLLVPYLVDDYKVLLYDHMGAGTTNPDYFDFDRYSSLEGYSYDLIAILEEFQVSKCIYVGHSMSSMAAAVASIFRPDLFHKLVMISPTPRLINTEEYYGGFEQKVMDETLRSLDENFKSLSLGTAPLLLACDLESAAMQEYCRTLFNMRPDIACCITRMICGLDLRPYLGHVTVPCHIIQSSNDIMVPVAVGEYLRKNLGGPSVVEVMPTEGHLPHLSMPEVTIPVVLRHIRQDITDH
structure (smiles),measurement,setting,value
CC1=C[C@H](OC(=O)N2CCN(C(=O)COc3ccc(Br)cc3C)CC2)OC1=O [(S)-4a],IC50,[1]; [5],44 µM
same,IC50,[1]; [6],49.8 µM
same,IC50,[1]; [7],48.4 µM
same,IC50,[1]; [8],47.4 µM
same,IC50,[1]; [9],16.8 µM
same,IC50,[1]; [10],15.4 µM
same,IC50,[1]; [11],14.7 µM
same,IC50,[1]; [12],15.7 µM
same,IC50,[1]; [13],2.17 µM
same,IC50,[1]; [14],2.91 µM
same,IC50,[1]; [15],2.59 µM
same,IC50,[1]; [16],2.56 µM
same,IC50,[1]; [17],5.38 µM
same,IC50,[1]; [18],6.82 µM
same,IC50,[1]; [19],5.43 µM
same,IC50,[1]; [20],5.88 µM
same,IC50,[1]; [21],9.92 µM
same,IC50,[1]; [22],6.62 µM
same,IC50,[1]; [23],7.62 µM
same,IC50,[1]; [24],8.05 µM
same,IC50,[1]; [25],12 µM
same,IC50,[1]; [26],7.84 µM
same,IC50,[1]; [27],5.8 µM
same,IC50,[1]; [28],8.54 µM
same,IC50,[1]; [29],10.9 µM
same,IC50,[1]; [30],19 µM
same,IC50,[1]; [31],16.2 µM
same,IC50,[1]; [32],15.4 µM
same,IC50,[1]; [33],11.7 µM
same,IC50,[1]; [34],11.6 µM
same,IC50,[1]; [35],12.8 µM
same,IC50,[1]; [36],12 µM
same,IC50,[1]; [37],6.48 µM
same,IC50,[1]; [38],5.76 µM
same,IC50,[1]; [39],3.77 µM
same,IC50,[1]; [40],5.34 µM
same,IC50,[2]; [41],1.06 µM
same,IC50,[2]; [42],0.837 µM
same,IC50,[2]; [43],0.921 µM
same,IC50,[2]; [44],0.938 µM
same,IC50,[2]; [45],0.94 ± 0.11 µM
same,IC50,[2]; [46],0.938 µM
same,hydrolysis by ShHTL7,[3],40.1%
same,"relative percentage of hydrolysis by ShHTL7, source data average",[3],40.0583%
same,IC50,[4]; [47],5.99 µM
same,IC50,[4]; [48],5.59 µM
same,IC50,[4]; [49],5.14 µM
same,IC50,[4]; [50],5.57 µM
same,IC50,[4]; [51],14.8 µM
same,IC50,[4]; [52],11.8 µM
same,IC50,[4]; [53],14.3 µM
same,IC50,[4]; [54],13.6 µM
same,IC50,[4]; [55],41.7 µM
same,IC50,[4]; [56],36.2 µM
same,IC50,[4]; [57],35.4 µM
same,IC50,[4]; [58],37.8 µM
same,IC50,[4]; [59],11.9 µM
same,IC50,[4]; [60],8.47 µM
same,IC50,[4]; [61],7.99 µM
same,IC50,[4]; [62],9.45 µM
same,IC50,[4]; [63],6.05 µM
same,IC50,[4]; [64],6.25 µM
same,IC50,[4]; [65],8.45 µM
same,IC50,[4]; [66],6.92 µM
CC1=C[C@@H](OC(=O)N2CCN(C(=O)COc3ccc(Br)cc3C)CC2)OC1=O [(R)-4a],IC50,[1]; [5],69.7 µM
same,IC50,[1]; [6],64.8 µM
same,IC50,[1]; [7],63.8 µM
same,IC50,[1]; [8],66.1 µM
same,IC50,[1]; [9],62.1 µM
same,IC50,[1]; [10],76.7 µM
same,IC50,[1]; [11],63.2 µM
same,IC50,[1]; [12],67.3 µM
same,IC50,[1]; [13],22.9 µM
same,IC50,[1]; [14],19.8 µM
same,IC50,[1]; [15],20.3 µM
same,IC50,[1]; [16],21 µM
same,IC50,[1]; [17],48.9 µM
same,IC50,[1]; [18],46.9 µM
same,IC50,[1]; [19],35.9 µM
same,IC50,[1]; [20],43.9 µM
same,IC50,[1]; [21],> 100 µM
same,IC50,[1]; [22],> 100 µM
same,IC50,[1]; [23],> 100 µM
same,IC50,[1]; [24],> 100 µM
same,IC50,[1]; [25],58.4 µM
same,IC50,[1]; [26],53.3 µM
same,IC50,[1]; [27],69.9 µM
same,IC50,[1]; [28],60.5 µM
same,IC50,[1]; [29],50.2 µM
same,IC50,[1]; [30],43.9 µM
same,IC50,[1]; [31],47.8 µM
same,IC50,[1]; [32],47.3 µM
same,IC50,[1]; [33],59.5 µM
same,IC50,[1]; [34],43.4 µM
same,IC50,[1]; [35],54.6 µM
same,IC50,[1]; [36],52.5 µM
same,IC50,[1]; [37],> 100 µM
same,IC50,[1]; [38],> 100 µM
same,IC50,[1]; [39],> 100 µM
same,IC50,[1]; [40],> 100 µM
same,IC50,[2]; [41],40.1 µM
same,IC50,[2]; [42],33.7 µM
same,IC50,[2]; [43],33.7 µM
same,IC50,[2]; [44],35.8 µM
same,IC50,[2]; [45],35.8 ± 3.69 µM
same,IC50,[2]; [46],35.8 µM
same,hydrolysis by ShHTL7,[3],3.1%
same,"relative percentage of hydrolysis by ShHTL7, source data average",[3],3.081%
same,IC50,[4]; [47],53.2 µM
same,IC50,[4]; [48],56.3 µM
same,IC50,[4]; [49],44.7 µM
same,IC50,[4]; [50],51.4 µM
same,IC50,[4]; [51],> 100 µM
same,IC50,[4]; [52],> 100 µM
same,IC50,[4]; [53],> 100 µM
same,IC50,[4]; [54],> 100 µM
same,IC50,[4]; [55],> 100 µM
same,IC50,[4]; [56],> 100 µM
same,IC50,[4]; [57],> 100 µM
same,IC50,[4]; [58],> 100 µM
same,IC50,[4]; [59],84.6 µM
same,IC50,[4]; [60],78.5 µM
same,IC50,[4]; [61],91.5 µM
same,IC50,[4]; [62],84.9 µM
same,IC50,[4]; [63],> 100 µM
same,IC50,[4]; [64],> 100 µM
same,IC50,[4]; [65],> 100 µM
same,IC50,[4]; [66],> 100 µM
